Experimental data from US20050239656A1, “Pyridine compounds or salts thereof and herbicides containing the same” (priority 2002, published 2005).

Legend:
barnyardgrass [1] = experiment: Test Example 1: foliage treatment, upland pot test; assay type: in vivo, Echinochloa crus-galli L.; details: observed 18th to 23rd day, 0 = non-treated, 100 = complete kill
Description: (§1) Upland field soil was put into a 1/170,000 ha pot, and seed of various plants were sown. Then, when the plants reached predetermined leaf stages ((1) barnyardgrass: 1.3 to 2.8 leaf stages, (2) crabgrass: 1.0 to 2.8 leaf stages, (3) green foxtail: 1.3 to 2.6 leaf stages, (4) redroot pigweed: 0.1 to 1.2 leaf stages, (5) prickly sida: 0.1 to 1.2 leaf stages, (6) velvetleaf: 0.1 to 1.2 leaf stages, (7) tall morningglory: 0.1 to 1.5 leaf stages, (8) rice: 1.2 to 2.6 leaf stages, (9) wheat: 1.3 to 2.4 leaf stages, (10) corn, 2.1 to 3.2 leaf stages, (11) soybean: 0.1 to 0.4 leaf stage), a wettable powder or emulsifiable concentrate having the compound of the present invention formulated in accordance with a usual formulation method, was weighed so that the active ingredient would be a predetermined amount, and diluted with water in an amount of 500 L/ha. To the diluted solution, 0.1% (v/v) of agricultural spreader was added. The herbicide thus adjusted was applied by a small size sprayer for foliage treatment. On the 18th to 23rd days after the application of the herbicide, the growth of the respective plants was visually observed, and the herbicidal effects were evaluated by the growth controlling degrees (%) ranging from 0 (equivalent to the non-treated plot) to 100 (complete kill), whereby the results shown in Table 3, were obtained.

crabgrass [2] = experiment: Test Example 1: foliage treatment, upland pot test; assay type: in vivo, Digitaria sanguinalis L.; details: observed 18th to 23rd day, 0 = non-treated, 100 = complete kill
Description: as §1

green foxtail [3] = experiment: Test Example 1: foliage treatment, upland pot test; assay type: in vivo, Setaria viridis L.; details: observed 18th to 23rd day, 0 = non-treated, 100 = complete kill
Description: as §1

redroot pigweed [4] = experiment: Test Example 1: foliage treatment, upland pot test; assay type: in vivo, Amaranthus retroflexus L.; details: observed 18th to 23rd day, 0 = non-treated, 100 = complete kill
Description: as §1

prickly sida [5] = experiment: Test Example 1: foliage treatment, upland pot test; assay type: in vivo, Sida spinosa L.; details: observed 18th to 23rd day, 0 = non-treated, 100 = complete kill
Description: as §1

velvetleaf [6] = experiment: Test Example 1: foliage treatment, upland pot test; assay type: in vivo, Abutilon theophrasti MEDIC.; details: observed 18th to 23rd day, 0 = non-treated, 100 = complete kill
Description: as §1

rice [7] = experiment: Test Example 1: foliage treatment, upland pot test; assay type: in vivo, Oryza sativa L.; details: crop, observed 18th to 23rd day, 0 = non-treated, 100 = complete kill
Description: as §1

corn [8] = experiment: Test Example 1: foliage treatment, upland pot test; assay type: in vivo, Zea mays L.; details: crop, observed 18th to 23rd day, 0 = non-treated, 100 = complete kill
Description: as §1

soybean [9] = experiment: Test Example 1: foliage treatment, upland pot test; assay type: in vivo, Glycine max Merr.; details: crop, observed 18th to 23rd day, 0 = non-treated, 100 = complete kill
Description: as §1

barnyardgrass [10] = experiment: Test Example 3: paddy pot test, application under submerged conditions; assay type: in vivo, Echinochloa crus-galli L.; details: submerged application at 0.5 leaf stage, visually observed 14 days after application, 0 = non-treated, 100 = complete kill
Method in brief: (§2)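 Paddy soil pots; seeds sown, lightly covered; flooded 0.5–1 cm in greenhouse; wapato tubers planted day 1–2; flood raised to 3–4 cm. Submerged pipette application at 0.5 leaf / primary leaf stage. Visual score day 14, 0–100%.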

japanese bulrush = experiment: as above; assay type: in vivo, Scirpus juncoides; details: submerged application at 0.5 leaf stage, visually observed 14 days after application, 0 = non-treated, 100 = complete kill
Method in brief: as §2

rice (var. Nihonbare) = experiment: Test Example 3: paddy pot test, transplanted rice; assay type: in vivo, Oryza sativa L.; details: applied 4th day after transplantation, visually observed 21st day after application, 0 = non-treated, 100 = complete kill
Method in brief: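 Visual crop-injury rating (0 = as untreated, 100 = complete kill, %) taken 21 days post-application. Treatment: formulated compound, water-diluted, pipetted into 3–4 cm flood water at a preset active-ingredient dose, 4 days after transplanting 2-leaf Nihonbare rice 3 cm deep in puddled paddy soil.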

japanese ribbon wapato = experiment: Test Example 3: paddy pot test, application under submerged conditions; assay type: in vivo, Sagittaria pygniaea; details: submerged application at primary leaf stage, visually observed 14 days after application, 0 = non-treated, 100 = complete kill
Method in brief: as §2

barnyardgrass [11] = experiment: Test Example 2: soil surface treatment, upland pot test; assay type: in vivo, Echinochloa crus-galli L.; details: active ingredient 500 g/ha, observed 20th to 28th day
Method in brief: (§3)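 Visual growth-control ratings (0 = untreated, 100 = complete kill) were taken 20–28 days after soil surface application. The spray was made one day post-sowing in upland soil pots, using formulated compound diluted with water at 1,500 L/ha at a set active ingredient rate.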

crabgrass [12] = experiment: as above; assay type: in vivo, Digitaria sanguinalis L.; details: active ingredient 500 g/ha, observed 20th to 28th day
Method in brief: as §3

green foxtail [13] = experiment: as above; assay type: in vivo, Setaria viridis L.; details: active ingredient 500 g/ha, observed 20th to 28th day
Method in brief: as §3

redroot pigweed [14] = experiment: as above; assay type: in vivo, Amaranthus retroflexus L.; details: active ingredient 500 g/ha, observed 20th to 28th day
Method in brief: as §3

prickly sida [15] = experiment: as above; assay type: in vivo, Sida spinosa L.; details: active ingredient 500 g/ha, observed 20th to 28th day
Method in brief: as §3

velvetleaf [16] = experiment: as above; assay type: in vivo, Abutilon theophrasti MEDIC.; details: active ingredient 500 g/ha, observed 20th to 28th day
Method in brief: as §3

corn [17] = experiment: as above; assay type: in vivo, Zea mays L.; details: active ingredient 500 g/ha, observed 20th to 28th day
Method in brief: as §3

soybean [18] = experiment: as above; assay type: in vivo, Glycine max Merr.; details: active ingredient 500 g/ha, observed 20th to 28th day
Method in brief: as §3

rice [19] = experiment: as above; assay type: in vivo, Oryza sativa L.; details: active ingredient 500 g/ha, observed 20th to 28th day
Method in brief: as §3

| Structure (SMILES) | Growth controlling degree (%) Barnyardgrass (barnyardgrass [1]; active ingredient 500 g/ha) | Growth controlling degree (%) Crabgrass (crabgrass [2]; active ingredient 500 g/ha) | Growth controlling degree (%) Green foxtail (green foxtail [3]; active ingredient 500 g/ha) | Growth controlling degree (%) Redroot pigweed (redroot pigweed [4]; active ingredient 500 g/ha) | Growth controlling degree (%) Prickly sida (prickly sida [5]; active ingredient 500 g/ha) | Growth controlling degree (%) Velvetleaf (velvetleaf [6]; active ingredient 500 g/ha) | Growth controlling degree (%) Rice (rice [7]; active ingredient 500 g/ha) | Growth controlling degree (%) Corn (corn [8]; active ingredient 500 g/ha) | Growth controlling degree (%) Soybean (soybean [9]; active ingredient 500 g/ha) | Growth controlling degree (%) Japanese bulrush (japanese bulrush; active ingredient 500 g/ha) | Growth controlling degree (%) Rice (rice (var. Nihonbare); active ingredient 500 g/ha) | Growth controlling degree (%) Barnyardgrass (barnyardgrass [10]; active ingredient 250 g/ha) | Growth controlling degree (%) Japanese bulrush (japanese bulrush; active ingredient 250 g/ha) | Growth controlling degree (%) Rice (rice (var. Nihonbare); active ingredient 250 g/ha) | Growth controlling degree (%) Barnyardgrass (barnyardgrass [11]) | Growth controlling degree (%) Crabgrass (crabgrass [12]) | Growth controlling degree (%) Green foxtail (green foxtail [13]) | Growth controlling degree (%) Redroot pigweed (redroot pigweed [14]) | Growth controlling degree (%) Prickly sida (prickly sida [15]) | Growth controlling degree (%) Velvetleaf (velvetleaf [16]) | other results |
| --- | --- | --- | --- | --- | --- | --- | --- | --- | --- | --- | --- | --- | --- | --- | --- | --- | --- | --- | --- | --- | --- |
| CC(Oc1ccccc1)C(=O)N(C)C(c1cnccc1C(F)(F)F)C(C)C (stereo not drawn) [I-119, N-methyl-N-[2-methyl-1-(4-trifluoromethylpyridin-3-yl)propyl]2-phenoxypropionamide] | 60% | 40% | 50% | 50% | 70% | 10% | 20% | 10% | 60% | 100% | 20% | – | – | – | – | – | – | – | – | – | Growth controlling degree (%) Barnyardgrass (barnyardgrass [10]; active ingredient 500 g/ha): 98% |
| CC(C)C(c1cnccc1C(F)(F)F)N(C)C(=O)Cc1ccc(C#N)cc1 (racemic) [I-114] | 80% | 80% | 70% | 60% | 80% | 70% | 30% | 60% | 70% | – | – | 100% | 95% | 30% | – | – | – | – | – | – | Growth controlling degree (%) Japanese ribbon wapato (japanese ribbon wapato; active ingredient 250 g/ha): 95% |
| CC(C)C(c1cnccc1C(F)(F)F)N(C)C(=O)Cc1ccc(Cl)c(Cl)c1 (stereo not drawn) [I-28] | 10% | 80% | 60% | 80% | 70% | 90% | 0% | 0% | 60% | – | – | 100% | 70% | 0% | 70% | 80% | 70% | 70% | 30% | 50% | Growth controlling degree (%) Corn (corn [17]): 0%; Growth controlling degree (%) Soyabean (soybean [18]): 0%; Growth controlling degree (%) Japanese ribbon wapato (japanese ribbon wapato; active ingredient 250 g/ha): 10% |
| CC(C)C(c1cnccc1C(F)(F)F)N(C)C(=O)Cc1cccc(F)c1F (stereo not drawn) [I-19] | – | – | – | – | – | – | – | – | – | 95% | 35% | – | – | – | 95% | 100% | 100% | 80% | 98% | 80% | Growth controlling degree (%) Barnyardgrass (barnyardgrass [1]; active ingredient 1000 g/ha): 80%; Growth controlling degree (%) Crabgrass (crabgrass [2]; active ingredient 1000 g/ha): 90%; Growth controlling degree (%) Green foxtail (green foxtail [3]; active ingredient 1000 g/ha): 70%; Growth controlling degree (%) Redroot pigweed (redroot pigweed [4]; active ingredient 1000 g/ha): 80%; Growth controlling degree (%) Prickly sida (prickly sida [5]; active ingredient 1000 g/ha): 80%; Growth controlling degree (%) Velvetleaf (velvetleaf [6]; active ingredient 1000 g/ha): 80%; Growth controlling degree (%) Rice (rice [7]; active ingredient 1000 g/ha): 20%; Growth controlling degree (%) Corn (corn [8]; active ingredient 1000 g/ha): 50%; Growth controlling degree (%) Soybean (soybean [9]; active ingredient 1000 g/ha): 90%; Growth controlling degree (%) Rice (rice [19]): 10%; Growth controlling degree (%) Corn (corn [17]): 30%; Growth controlling degree (%) Soyabean (soybean [18]): 30%; Growth controlling degree (%) Japanese ribbon wapato (japanese ribbon wapato; active ingredient 500 g/ha): 95% |
| CCOC(=O)N(C)C(c1cnccc1C(F)(F)F)c1cccc2ccccc12 (stereo not drawn) [I-54] | 50% | 95% | 50% | 80% | 90% | 95% | 30% | 50% | 50% | 70% | 20% | – | – | – | – | – | – | – | – | – | Growth controlling degree (%) Barnyardgrass (barnyardgrass [10]; active ingredient 500 g/ha): 100%; Growth controlling degree (%) Japanese ribbon wapato (japanese ribbon wapato; active ingredient 500 g/ha): 0% |
| CC(C)C(c1cnccc1C(F)(F)F)N(C)C(=O)Cc1ccc(C(F)(F)F)cc1 (stereo not drawn) [I-31] | 95% | 85% | 80% | 80% | 80% | 95% | 40% | 70% | 90% | – | – | 100% | 95% | 20% | 100% | 90% | 100% | 80% | 100% | 50% | Growth controlling degree (%) Rice (rice [19]): 10%; Growth controlling degree (%) Corn (corn [17]): 30%; Growth controlling degree (%) Soyabean (soybean [18]): 50% |
| CC(C)C(c1cnccc1Cl)N(C)C(=O)Cc1cccc(C(F)(F)F)c1 (stereo not drawn) [I-68] | 0% | 60% | 10% | 70% | 70% | 80% | 0% | 0% | 10% | – | – | – | – | – | – | – | – | – | – | – | Growth controlling degree (%) Barnyardgrass (barnyardgrass [10]; active ingredient 125 g/ha): 95%; Growth controlling degree (%) Japanese bulrush (japanese bulrush; active ingredient 125 g/ha): 70%; Growth controlling degree (%) Japanese ribbon wapato (japanese ribbon wapato; active ingredient 125 g/ha): 50%; Growth controlling degree (%) Rice (rice (var. Nihonbare); active ingredient 125 g/ha): 10% |
